Assay results reported in patent US11541028B2, “Peptide pharmaceuticals for treatment of NASH and other disorders” (Mederis Diabetes LLC, priority 2018, dated 2023).
pEC50: −log10 of the molar value. Bridge positions count the residues as written; N and C are the ends. Square brackets hold non-standard residues; d marks the D form. Peptide text beside a SMILES is read from it. * marks the point of attachment. βGlcA(1-O-hexadecyl) = CCCCCCCCCCCCCCCCO[C@@H]1O[C@H](C(=O)*)[C@@H](O)[C@H](O)[C@H]1O; Aib = CC(C)(N)C(=O)O

Experiments:
[1] = molecular target: T1, human glucagon receptor (Homo sapiens, UniProt P47871); assay: DiscoveRx LeadHunter cellular assay, cAMP stimulation, glucagon receptor in CHO cells; assay type: cell-based
T1 construct: host or cells: CHO cells
T1 sequence (P47871 26-477): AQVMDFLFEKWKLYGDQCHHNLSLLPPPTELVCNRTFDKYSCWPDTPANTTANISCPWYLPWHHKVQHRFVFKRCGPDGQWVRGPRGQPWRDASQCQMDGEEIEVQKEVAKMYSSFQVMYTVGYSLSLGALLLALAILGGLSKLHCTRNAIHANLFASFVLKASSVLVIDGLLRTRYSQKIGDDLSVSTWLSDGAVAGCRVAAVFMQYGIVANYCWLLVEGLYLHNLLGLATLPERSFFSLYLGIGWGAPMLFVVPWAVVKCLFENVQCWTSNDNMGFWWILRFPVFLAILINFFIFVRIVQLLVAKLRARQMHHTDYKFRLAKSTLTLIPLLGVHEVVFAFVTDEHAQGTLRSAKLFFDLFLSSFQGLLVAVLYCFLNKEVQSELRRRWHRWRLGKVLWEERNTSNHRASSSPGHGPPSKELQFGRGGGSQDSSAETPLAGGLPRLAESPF

[2] = molecular target: T2, human GLP-1 receptor (Homo sapiens, UniProt P43220); assay: DiscoveRx LeadHunter cellular assay, cAMP stimulation, GLP-1 receptor in CHO cells; assay type: cell-based; details: human GLP-1 receptor in CHO cells (DiscoveRx); read-out: EC50 cAMP GLP-1 R
T2 construct: host or cells: CHO cells
T2 sequence (P43220 24-463): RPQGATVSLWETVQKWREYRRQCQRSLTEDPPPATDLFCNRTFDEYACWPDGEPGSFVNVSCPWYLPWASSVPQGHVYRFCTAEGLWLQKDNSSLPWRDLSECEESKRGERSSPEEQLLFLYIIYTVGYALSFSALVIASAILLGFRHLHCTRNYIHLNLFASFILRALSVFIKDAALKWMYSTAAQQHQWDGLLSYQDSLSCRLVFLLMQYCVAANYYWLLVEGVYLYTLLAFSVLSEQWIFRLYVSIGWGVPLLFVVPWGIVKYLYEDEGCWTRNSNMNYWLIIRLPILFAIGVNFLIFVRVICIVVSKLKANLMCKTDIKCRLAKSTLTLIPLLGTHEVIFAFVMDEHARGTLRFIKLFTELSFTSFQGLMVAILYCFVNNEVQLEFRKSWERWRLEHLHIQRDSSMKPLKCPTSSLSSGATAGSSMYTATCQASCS

| SMILES | pEC50 [1] | pEC50 [2] |
| --- | --- | --- |
| CCCCCCCCCCCCO[C@@H]1O[C@H](CO[C@H]2O[C@H](C(=O)NCCCC[C@@H]3NC(=O)[C@@H](NC(=O)[C@H](CC(=O)O)NC(=O)[C@H](CC(C)C)NC(=O)[C@H](Cc4ccc(O)cc4)NC(=O)[C@H](CCCCN)NC(=O)[C@H](CO)NC(=O)[C@H](Cc4ccc(O)cc4)NC(=O)[C@H](CC(=O)O)NC(=O)[C@H](CO)NC(=O)[C@@H](NC(=O)[C@H](Cc4ccccc4)NC(=O)[C@@H](NC(=O)CNC(=O)[C@H](CCC(N)=O)NC(=O)C(C)(C)NC(=O)[C@@H](N)Cc4c[nH]cn4)[C@@H](C)O)[C@@H](C)O)CCC(=O)NCCCC[C@@H](C(=O)N[C@@H](CCC(=O)O)C(=O)N[C@@H](Cc4ccccc4)C(=O)N[C@H](C(=O)N[C@@H](CCC(N)=O)C(=O)N[C@@H](Cc4c[nH]c5ccccc45)C(=O)N[C@@H](CC(C)C)C(=O)N[C@@H](CC(C)C)C(=O)N[C@@H](CCC(N)=O)C(=O)N[C@H](C(=O)O)[C@@H](C)O)[C@@H](C)CC)NC(=O)[C@H](C)NC(=O)[C@H](C)NC3=O)[C@H](O)[C@H](O)[C@H]2O)[C@@H](O)[C@H](O)[C@H]1O [EU-A1590] | 9.46 | 10.03 |
| CCCCCCCCCCCCCCCCO[C@@H]1O[C@H](C(=O)NCCCC[C@H](NC(=O)[C@H](C)NC(=O)[C@H](C)NC(=O)[C@H](CCC(N)=O)NC(=O)[C@H](CO)NC(=O)[C@H](CC(=O)O)NC(=O)[C@@H]2CCCCNC(=O)CC[C@H](NC(=O)[C@H](CC(=O)O)NC(=O)[C@H](CO)NC(=O)[C@@H](NC(=O)[C@H](Cc3ccccc3)NC(=O)[C@@H](NC(=O)CNC(=O)[C@H](CCC(N)=O)NC(=O)C(C)(C)NC(=O)[C@@H](N)Cc3c[nH]cn3)[C@@H](C)O)[C@@H](C)O)C(=O)N[C@@H](CO)C(=O)N[C@@H](CCCCN)C(=O)N[C@@H](Cc3ccc(O)cc3)C(=O)N2)C(=O)N[C@@H](CCC(=O)O)C(=O)N[C@@H](Cc2ccccc2)C(=O)N[C@H](C(=O)N[C@@H](CCC(=O)O)C(=O)N[C@@H](Cc2c[nH]c3ccccc23)C(=O)N[C@@H](CC(C)C)C(=O)N[C@@H](CC(C)C)C(=O)N[C@@H](CCC(N)=O)C(=O)N[C@H](C(N)=O)[C@@H](C)O)[C@@H](C)CC)[C@@H](O)[C@H](O)[C@H]1O [EU-A1848] (H-H[Aib]QGTFTSDESKYKDSQAAK(βGlcA(1-O-hexadecyl))EFIEWLLQT-NH2; lactam 10-14; N-terminus assumed) | 8.51 | 10.22 |
| CCCCCCCCCCCCCCCCO[C@@H]1O[C@H](C(=O)NCCCC[C@H](NC(=O)[C@@H](NC(=O)[C@H](Cc2ccccc2)NC(=O)[C@H](CCC(=O)O)NC(=O)[C@@H]2CCCCNC(=O)CC[C@H](NC(=O)[C@H](CC(=O)O)NC(=O)[C@H](CC(C)C)NC(=O)[C@H](Cc3ccc(O)cc3)NC(=O)[C@H](CCCCN)NC(=O)[C@H](CO)NC(=O)[C@H](Cc3ccc(O)cc3)NC(=O)[C@H](CC(=O)O)NC(=O)[C@H](CO)NC(=O)[C@@H](NC(=O)[C@H](Cc3ccccc3)NC(=O)[C@@H](NC(=O)CNC(=O)[C@H](CCC(N)=O)NC(=O)C(C)(C)NC(=O)[C@@H](N)Cc3c[nH]cn3)[C@@H](C)O)[C@@H](C)O)C(=O)N[C@@H](CCC(N)=O)C(=O)N[C@@H](C)C(=O)N[C@@H](C)C(=O)N2)[C@@H](C)CC)C(=O)N[C@@H](Cc2c[nH]c3ccccc23)C(=O)N[C@@H](CC(C)C)C(=O)N[C@@H](CC(C)C)C(=O)N[C@@H](CCC(N)=O)C(=O)N[C@H](C(=O)NCCOCCOCCOCCOCCC(=O)O)[C@@H](C)O)[C@@H](O)[C@H](O)[C@H]1O [EU-A1635] | 8.70 | 10.15 |
| CCCCCCCCCCO[C@@H]1O[C@H](C(=O)N[C@@H](CCC(=O)N[C@@H](CCC(=O)NCCCC[C@H](NC(=O)[C@@H](NC(=O)[C@H](Cc2ccccc2)NC(=O)[C@H](CCC(=O)O)NC(=O)[C@@H]2CCCCNC(=O)CC[C@H](NC(=O)[C@H](CC(=O)O)NC(=O)[C@H](CC(C)C)NC(=O)[C@H](Cc3ccc(O)cc3)NC(=O)[C@H](CCCCN)NC(=O)[C@H](CO)NC(=O)[C@H](Cc3ccc(O)cc3)NC(=O)[C@H](CC(=O)O)NC(=O)[C@H](CO)NC(=O)[C@@H](NC(=O)[C@H](Cc3ccccc3)NC(=O)[C@@H](NC(=O)CNC(=O)[C@H](CCC(N)=O)NC(=O)C(C)(C)NC(=O)[C@@H](N)Cc3c[nH]cn3)[C@@H](C)O)[C@@H](C)O)C(=O)N[C@@H](CCC(N)=O)C(=O)N[C@@H](C)C(=O)N[C@@H](C)C(=O)N2)[C@@H](C)CC)C(=O)N[C@@H](Cc2c[nH]c3ccccc23)C(=O)N[C@@H](CC(C)C)C(=O)N[C@@H](CC(C)C)C(=O)N[C@@H](CCC(N)=O)C(=O)N[C@H](C(N)=O)[C@@H](C)O)C(=O)O)C(=O)O)[C@@H](O)[C@H](O)[C@H]1O [EU-A1722] | 10.92 | 11.22 |

The next lines start with the values.

| pEC50 [1] | pEC50 [2] | SMILES |
| --- | --- | --- |
| 9.85 | 11.05 | CCCCCCCCO[C@@H]1O[C@H](C(=O)NCCCC[C@H](NC(=O)[C@@H](NC(=O)[C@H](Cc2ccccc2)NC(=O)[C@H](CCC(=O)O)NC(=O)[C@@H]2CCCCNC(=O)CC[C@H](NC(=O)[C@H](CC(=O)O)NC(=O)[C@H](CC(C)C)NC(=O)[C@H](Cc3ccc(O)cc3)NC(=O)[C@H](CCCCN)NC(=O)[C@H](CO)NC(=O)[C@H](Cc3ccc(O)cc3)NC(=O)[C@H](CC(=O)O)NC(=O)[C@H](CO)NC(=O)[C@@H](NC(=O)[C@H](Cc3ccccc3)NC(=O)[C@@H](NC(=O)CNC(=O)[C@H](CCC(N)=O)NC(=O)C(C)(C)NC(=O)[C@@H](N)Cc3c[nH]cn3)[C@@H](C)O)[C@@H](C)O)C(=O)N[C@@H](CCC(N)=O)C(=O)N[C@@H](C)C(=O)N[C@@H](C)C(=O)N2)[C@@H](C)CC)C(=O)N[C@@H](Cc2c[nH]c3ccccc23)C(=O)N[C@@H](CC(C)C)C(=O)N[C@@H](CC(C)C)C(=O)N[C@@H](CCC(N)=O)C(=O)N[C@H](C(=O)O)[C@@H](C)O)[C@@H](O)[C@H](O)[C@H]1O [EU-A1679] |
| 10.16 | 11.15 | CCCCCCCCCCCCCCO[C@@H]1O[C@H](CO[C@H]2O[C@H](C(=O)NCCCC[C@H](NC(=O)[C@@H](NC(=O)[C@H](Cc3ccccc3)NC(=O)[C@H](CCC(=O)O)NC(=O)[C@@H]3CCCCNC(=O)CC[C@H](NC(=O)[C@H](CC(=O)O)NC(=O)[C@H](CC(C)C)NC(=O)[C@H](Cc4ccc(O)cc4)NC(=O)[C@H](CCCCN)NC(=O)[C@H](CO)NC(=O)[C@H](Cc4ccc(O)cc4)NC(=O)[C@H](CC(=O)O)NC(=O)[C@H](CO)NC(=O)[C@@H](NC(=O)[C@H](Cc4ccccc4)NC(=O)[C@@H](NC(=O)CNC(=O)[C@H](CCC(N)=O)NC(=O)C(C)(C)NC(=O)[C@@H](N)Cc4c[nH]cn4)[C@@H](C)O)[C@@H](C)O)C(=O)N[C@@H](CCC(N)=O)C(=O)N[C@@H](C)C(=O)N[C@@H](C)C(=O)N3)[C@@H](C)CC)C(=O)N[C@@H](Cc3c[nH]c4ccccc34)C(=O)N[C@@H](CC(C)C)C(=O)N[C@@H](CC(C)C)C(=O)N[C@@H](CCC(N)=O)C(=O)N[C@H](C(=O)O)[C@@H](C)O)[C@H](O)[C@H](O)[C@H]2O)[C@@H](O)[C@H](O)[C@H]1O [EU-A1577] |
| 10.59 | 11.05 | CCCCCCCCCCCCO[C@@H]1O[C@H](C(=O)NCCCC[C@H](N)C(=O)NCCCC[C@H](NC(=O)[C@@H](NC(=O)[C@H](Cc2ccccc2)NC(=O)[C@H](CCC(=O)O)NC(=O)[C@@H]2CCCCNC(=O)CC[C@H](NC(=O)[C@H](CC(=O)O)NC(=O)[C@H](CC(C)C)NC(=O)[C@H](Cc3ccc(O)cc3)NC(=O)[C@H](CCCCN)NC(=O)[C@H](CO)NC(=O)[C@H](Cc3ccc(O)cc3)NC(=O)[C@H](CC(=O)O)NC(=O)[C@H](CO)NC(=O)[C@@H](NC(=O)[C@H](Cc3ccccc3)NC(=O)[C@@H](NC(=O)CNC(=O)[C@H](CCC(N)=O)NC(=O)C(C)(C)NC(=O)[C@@H](N)Cc3c[nH]cn3)[C@@H](C)O)[C@@H](C)O)C(=O)N[C@@H](CCC(N)=O)C(=O)N[C@@H](C)C(=O)N[C@@H](C)C(=O)N2)[C@@H](C)CC)C(=O)N[C@@H](Cc2c[nH]c3ccccc23)C(=O)N[C@@H](CC(C)C)C(=O)N[C@@H](CC(C)C)C(=O)N[C@@H](CCC(N)=O)C(=O)N[C@H](C(N)=O)[C@@H](C)O)[C@@H](O)[C@H](O)[C@H]1O [EU-A1711] |
| 9.22 | 9.92 | CCCCCCCCCCCCCCO[C@@H]1O[C@H](CO[C@H]2O[C@H](C(=O)N[C@@H](CCC(=O)NCCCC[C@H](NC(=O)[C@@H](NC(=O)[C@H](Cc3ccccc3)NC(=O)[C@H](CCC(=O)O)NC(=O)[C@@H]3CCCCNC(=O)CC[C@H](NC(=O)[C@H](CC(=O)O)NC(=O)[C@H](CC(C)C)NC(=O)[C@H](Cc4ccc(O)cc4)NC(=O)[C@H](CCCCN)NC(=O)[C@H](CO)NC(=O)[C@H](Cc4ccc(O)cc4)NC(=O)[C@H](CC(=O)O)NC(=O)[C@H](CO)NC(=O)[C@@H](NC(=O)[C@H](Cc4ccccc4)NC(=O)[C@@H](NC(=O)CNC(=O)[C@H](CCC(N)=O)NC(=O)C(C)(C)NC(=O)[C@@H](N)Cc4c[nH]cn4)[C@@H](C)O)[C@@H](C)O)C(=O)N[C@@H](CCC(N)=O)C(=O)N[C@@H](C)C(=O)N[C@@H](C)C(=O)N3)[C@@H](C)CC)C(=O)N[C@@H](Cc3c[nH]c4ccccc34)C(=O)N[C@@H](CC(C)C)C(=O)N[C@@H](CC(C)C)C(=O)N[C@@H](CCC(N)=O)C(=O)N[C@H](C(=O)O)[C@@H](C)O)C(=O)O)[C@H](O)[C@H](O)[C@H]2O)[C@@H](O)[C@H](O)[C@H]1O [EU-A1617] |
| 10.28 | 11.10 | CCCCCCCCCCCCO[C@@H]1O[C@H](C(=O)NCCCC[C@H](NC(=O)[C@@H](NC(=O)[C@H](Cc2ccccc2)NC(=O)[C@H](CCC(=O)O)NC(=O)[C@@H]2CCCCNC(=O)CC[C@H](NC(=O)[C@H](CC(=O)O)NC(=O)[C@H](CC(C)C)NC(=O)[C@H](Cc3ccc(O)cc3)NC(=O)[C@H](CCCCN)NC(=O)[C@H](CO)NC(=O)[C@H](Cc3ccc(O)cc3)NC(=O)[C@H](CC(=O)O)NC(=O)[C@H](CO)NC(=O)[C@@H](NC(=O)[C@H](Cc3ccccc3)NC(=O)[C@@H](NC(=O)CNC(=O)[C@H](CCC(N)=O)NC(=O)C(C)(C)NC(=O)[C@@H](N)Cc3c[nH]cn3)[C@@H](C)O)[C@@H](C)O)C(=O)N[C@@H](CCC(N)=O)C(=O)N[C@@H](C)C(=O)N[C@@H](C)C(=O)N2)[C@@H](C)CC)C(=O)N[C@@H](Cc2c[nH]c3ccccc23)C(=O)N[C@@H](CC(C)C)C(=O)N[C@@H](CC(C)C)C(=O)N[C@@H](CCC(N)=O)C(=O)N[C@H](C(=O)NCCOCCOCCOCCOCCC(=O)O)[C@@H](C)O)[C@@H](O)[C@H](O)[C@H]1O [EU-A1633] |
